Laboratory results as given in PMC8780580, “The Neuroactive Steroid Pregnanolone Glutamate: Anticonvulsant Effect, Metabolites and Its Effect on Neurosteroid Levels in Developing Rat Brains” (Pharmaceuticals, 2021).
Where a name gives a salt, the structure may show the parent alone.

Columns and labels:
[1] = within 0.5 min of uptake; cited from earlier work
[2] = Steroidomic (GC-MS/MS) analysis of hippocampal tissue after PA-G administration; conditions: for concentration at 20 min: male, Wistar, rat, in vivo, ip, Steroid concentration in hippocampal tissue, PA-G-Treated (P); for concentration at 20 min / increase in concentration compared with basal levels: 1 mg/kg; for concentration at 20 min / fold increase in the concentration in the rat hippocampus above the basal levels / percentage of total significantly increased (5β) steroids in the rat hippocampus: 20 min after PA-G i.p., 1 mg/kg in CDX; for increase in concentration compared with basal levels: after PA-G i.p.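 As to all read-outs here: hippocampal steroids quantified by GC-MS/MS, covering free and conjugated forms after hydrolysis, compared against intact rats and rats injected with CDX vehicle alone, five animals per group.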
Procedure: In a separate experiment, samples of the hippocampus were obtained from male albino Wistar rats in 6 experimental groups consisting of P12 and P25 animals that were either intact (I), controls (C, i.p. application of a solution of CDX), or in the experimental group (i.p. application of PA-G in a solution of CDX at a dose of 1 mg/kg). Each group consisted of 5 animals. The animals were sacrificed using ether anaesthesia (Penta, Czech Republic) 30 min after administration of the drug. The hippocampi were quickly removed, weighed, and frozen at −80 °C in sterile plastic microvials until analysis.
An amount of 17–100 mg of the hippocampal tissue was minced and then administered into screw-cap tubes. Next, 2 mL of methanol with a mixture of internal standards was added, and the samples were incubated for 1 week in a refrigerator at 4 °C with agitation for 2 min once a day. Afterwards, the extract was transferred into new screw-cap tubes and dried in a vacuum centrifuge at 45 °C. After that, 1 mL of water of chromatographic purity was added, and the samples were further treated as described in our recently published paper [76].
Briefly, the unconjugated steroids were extracted from a testing sample with diethyl-ether, the extract was dried, and the lipids were separated by partitioning between a mixture of methanol with water (4:1, v/v) and pentane. The pentane phase was discarded, and the polar phase was dried and used for further analysis of the unconjugated steroids. Steroid conjugates remaining in the polar residue after diethyl ether were hydrolyzed to their parent hydroxy steroids (unconjugated molecules) and analyzed.

[3] = system: pentylenetetrazol-induced seizures; experiment: Pentylenetetrazol (PTZ)-induced seizures in 12- and 25-day-old rats; assay type: in vivo, male Wistar albino rats
Procedure: Solutions of PA-G and PA-S were administered intraperitoneally at a concentration of 1 mg/mL, and doses of 1, 5, 10, and 20 mg/kg were used. The solutions of zuranolone were administered intraperitoneally at a concentration of 1 mg/mL, and doses of 0.5, 1, 5, and 10 mg/kg were used. Controls were injected with CDX solution in a volume corresponding to the highest dose (i.e., 20 mL/kg). The same control group was used for PA-S and PA-G. Pentylenetetrazol (PTZ, Sigma Aldrich, Gillingham, Dorset, UK) was dissolved in water in a concentration of 50 mg/mL and was administered subcutaneously at a dose of 100 mg/kg 20 min after the administration of PA-G or PA-S. Each age and dose group comprised 8 animals. The rats were placed individually into plexiglass boxes and were then observed for 30 min after PTZ injection. The incidence, severity, and latencies of seizures were assessed. Younger animals were placed on a pad heated to 34 °C, i.e., to the temperature in the nest for the whole duration of the experiment because of immature thermoregulation. Generalized tonic-clonic or clonic seizures with a loss of righting reflexes were present after a dose of 100 mg/kg of PTZ in all control animals in both age groups. […] The severity of seizures was quantified using a five-point scale as follows: 0—no changes; 0.5—abnormal behaviour (e.g., automatisms, increased orienting reaction); 1—isolated myoclonic jerks; 2—atypical or prolonged minimal seizures; 3—clonic seizures (mS) involving head and forelimb muscles with preserved righting reflexes (older-term minimal pentetrazol seizures); 4—generalized seizures without the tonic phase (GCS); 5—complete generalized tonic-clonic seizures (GTCS).

postpartum depression = system: postpartum depression; design: method as in PMID 34190962; conditions: women with postpartum depression, Phase 3 clinical trial; cited from earlier work
GABAARs = conditions: allosteric displacement of [35S]-TBPS from the picrotoxin binding site on GABAARs; cited from earlier work
α4β3γ2 GABAARs = system: α4β3γ2 GABAARs; design: method as in PMID 15294445; conditions: at 100 μM; cited from earlier work
α4β3δ GABAARs = system: α4β3δ GABAARs; design: method as in PMID 15294445; conditions: cited from earlier work
[4] = P12 rats, i.p. doses of 5 and 10 mg/kg

C[C@]12CC[C@H](OS(=O)(=O)O)CC1=CC[C@@H]1[C@@H]2CC[C@]2(C)C(=O)CC[C@@H]12 [Dehydroepiandrosterone sulfate (DHEA-S), 17-oxo-androst-5-en-3β-yl 3-sulfate]
desulfation [1]: > 50% | concentration at 20 min ([2]; 12-day-old rats): 4.86 ng/g | concentration at 20 min ([2]; 25-day-old rats): 1.52 ng/g

C[C@@]1(O)CC[C@H]2[C@H](CC[C@@H]3[C@@H]2CC[C@]2(C)[C@@H](C(=O)Cn4cc(C#N)cn4)CC[C@@H]32)C1 [zuranolone]
development of GS [3, 4]: abolished | seizure severity [3, 4]: significant decrease in seizure severity | latencies of mS ([3]; P25 rats): increase in the latencies of mS | development of GS ([3]; P25 rats, all tested doses (0.5, 1, 5, 10 mg/kg i.p.)): completely suppressed development of GS | seizure severity ([3]; P25 rats, i.p. dose of only 1 mg/kg): significantly decreased seizure severity | development of mS ([3]; P25 rats, i.p. doses of 5 and 10 mg/kg): suppressed the development of mS | symptoms of depression (postpartum depression): improved the symptoms of depression | IC50 (GABAARs): 0.007 µM

CC(=O)[C@@]1(O)CCC2C3CC[C@@H]4C[C@H](O)CC[C@]4(C)C3CC[C@@]21C (stereo partly drawn) [17-OH-PA, 17-hydroxy-pregnanolone]
greatest response (α4β3γ2 GABAARs): 20% | proportion of the brain's 5β-steroids in the tissue ([2]; 20 min after PA-G administration): about three-quarters | fold increase in the concentration in the rat hippocampus above the basal levels ([2]; P12): 562 x | percentage of total significantly increased (5β) steroids in the rat hippocampus ([2]; P12): 73.7% | increase in concentration compared with basal levels ([2]; P12 animals): up to 560 fold | metabolite of PA-G identified in hippocampus ([2]; P12 vs. P25 animals, 20 min after PA-G administration): major metabolite | fold increase in the concentration in the rat hippocampus above the basal levels ([2]; P25): 35.8 x | percentage of total significantly increased (5β) steroids in the rat hippocampus ([2]; P25): 75.9% | increase in concentration compared with basal levels ([2]; P25 animals): 36 fold | concentration at 20 min ([2]; 12-day-old rats): 518 ng/g | concentration at 20 min ([2]; 25-day-old rats): 40.8 ng/g | maximum efficacy (α4β3δ GABAARs): 57% | EC50 (α4β3δ GABAARs; read-out: EC50 (potentiation of responses)): 3.5 µM
